The text below walks through data of patent EP1189687B1, “FLOWABLE W/O TYPE EMULSIONS WITH A HIGH WATER CONTENT CONTAINING MEDIUM POLAR LIPIDS” (Beiersdorf AG, priority 1999, dated 2000).

The structures appear in SMILES notation.

This data set in a line: Interfacial tension of medium-polar lipids against water (measure of polarity). Format: physicochemical. Particulars: taken as polarity index of the lipid (the lower the tension, the more polar). An excerpt:
Öle und Fette unterscheiden sich unter anderem in ihrer Polarität, welche schwierig zu definieren ist. Es wurde bereits vorgeschlagen, die Grenzflächenspannung gegenüber Wasser als Maß für den Polaritätsindex eines Öls bzw. einer Ölphase anzunehmen. Dabei gilt, daß die Polarität der betreffenden Ölphase umso größer ist, je niedriger die Grenzflächenspannung zwischen dieser Ölphase und Wasser ist. Erfindungsgemäß wird die Grenzflächenspannung als ein mögliches Maß für die Polarität einer gegebenen Ölkomponente angesehen.
Die Grenzflächenspannung ist diejenige Kraft, die an einer gedachten, in der Grenzfläche zwischen zwei Phasen befindlichen Linie der Länge von einem Meter wirkt. Die physikalische Einheit für diese Grenzflächenspannung errechnet sich klassisch nach der Beziehung Kraft/Länge und wird gewöhnlich in mN/m (Millinewton geteilt durch Meter) wiedergegeben. Sie hat positives Vorzeichen, wenn sie das Bestreben hat, die Grenzfläche zu verkleinern. Im umgekehrten Falle hat sie negatives Vorzeichen.
Die nachfolgende Tabelle 1 führt mittelpolare Lipide auf, die als Einzelsubstanzen oder auch im Gemisch untereinander erfindungsgemäß vorteilhaft sind. Die betreffenden Grenzflächenspannungen gegen Wasser sind in der letzten Spalte angegeben. Es ist jedoch auch vorteilhaft, Gemische aus höher- und niederpolaren und dergleichen zu verwenden, sofern gewährleistet ist, daß die Gesamtpolarität der Ölphase im beanspruchten Bereich liegt. Tabelle 1
On to `CCCCCCCCCCCCCCCCCC(=O)OCCCCCCCC` [Cetiol® 868, Octyl Stearate], for which the “Grenzflächenspannung gegen Wasser” value was 28,4 mN/m.
As for `CCCCCCCCCCC(CO)CCCCCCCC` (centres unmarked) [Eutanol® G, Octyldodecanol], the figure is 24,8 mN/m; as for `CCCCCCCCC(CO)CCCCCC` (centres unmarked) [Isofol® 16, Hexyl Decanol], 24,3 mN/m; as for `CCCCCCCCCCCCCCCCCC(=O)OC(C)C` [Isopropylstearal, Isopropyl Stearate], 21,9 mN/m.
Then `CCCCCCCCCCCCCC(=O)OCC(CCCCCCCC)CCCCCCCCCC` (centres unmarked) [MOD, Octyldodeceyl Myristate], with 22,1 mN/m; and `CCCCCCCCOC(=O)CCCCCCCCCCCCCCC(C)C` [Prisorine® 2036, Octyl Isostearate], with 29,7 mN/m; and `CCCCCCCCCCCCCCCCCCOC(=O)CCCCCC` [Tegosoft® SH, Stearyl Heptanoate], with 28,7 mN/m.
Then `CCCCCCCC(=O)OCC(COC(=O)CCCCCCC)OC(=O)CCCCCCC` [Trivent® OCG, Tricaprylin], with 20,2 mN/m.
